In patent US6881824B1, “Peptides suitable for use in antigen specific immunosuppressive therapy” (Akzo Nobel N.V., priority 1996, dated 2005):
Ends that are not written are not given here.

Experiments:
[1] = biological target: T1, DR4 (DRB1*0401) molecules (Homo sapiens, UniProt P01903+P01911, A100K/A169T/F76Y/I96L/K127E/L162R/M171V/N62H/P40V/Q125Y/R42H/S133A/S149N/S66Y/V115G/V209L/W38E); assay: Peptide HLA-DR binding assay (semi-quantitative competition binding); conditions: for IC50: Table IIIA, competition with biotinylated marker peptide HA 309 Y→F, pH5.0, 44 hr RT
T1 construct: molecules were purified from the homozygous EBV-transformed human B lymphoblastoid cell lines Huly138IC2 and BM92 using the mAb; endogenous in cells
Protocol: DR4 (DRB1*0401) and DR4 (DRB1*0404) molecules were purified from the homozygous EBV-transformed human B lymphoblastoid cell lines Huly138IC2 and BM92 using the mAb t243, directed against a monomorphic determinant on the DR-complex (Lampson, L. A and R. Levy (1980), J. Immunol. 125:293 299).
The peptide binding studies were performed using a semi-quantitative competition binding assay (Joosten et al 1994, Int. Immunol. 6, 751). Briefly, purified HLA-DR molecules (30 nM DR4(DRB1*0401) or 15 nM DR4 (DRB1*0404) were incubated at pH5.0 with 50 nM biotinylated marker peptide (HA 309y→F) and a concentration range of competitor peptide in a final volume of 25 μl binding buffer (PBS containing 0.01% […], 0.05% NP-40, 5% DMSO, 1 mM AEBSF, 1 mM N-ethyl maleimide, 8 mM EDTA and 10 μm pepstatin A). After 44 hr of incubation at RT, HLA DR bound marker peptide was separated from free marker peptide using a 96 well vacuum dotblot apparatus (Hybri. dot, BRL) and a nitrocellulose membrane (Hybond ECL, Amersham, UK). The nitrocellulose filters were blocked with 0.5% DNA blocking reagent (Boehringer) in 0.1 M maleic acid, 150 mM NaCl, pH7.5.
After 0.5-1 hr, the filters were washed in PBS, 0.05% Tween 20 (Sigma) and incubated with Strepcavidin-HRPO (Southern Biotechnology) in a 1:10.000 dilution. Biotinylated peptides were detected by enhanced chemiluminescence using a Western Blot ECL kit (Amersham). Exposure of the preflashed films (Hyperfilm-ECL, Amersham) was for 10 min. The spots were analysed by scanning the films and using Image Quant/Excel software for analysis.
The affinity of a given peptide for binding DRB1*0401-encoded molecules was related to competition with the marker peptide. This relative binding affinity was defined as the peptide concentration at which the signal was reduced to 50% (IC50).

[2] = system: PBMC from RA patients carrying the DR4 (DRB1*0401) specificity; assay: Peptide-induced proliferative responses of PBMC from RA patients; type: cell-based, human; conditions: 100 and 10 microgram/ml, 7 days, 3H-thymidine incorporation; for Peptide-induced proliferative response of PBMC, RA 286: RA patient 286, 0401, R; for Peptide-induced proliferative response of PBMC, RA 191: RA patient 191, 0401, R
Protocol: This study included 7 DR4(DRB1*0401)-positive patients diagnosed as suffering from RA according to the ARA criteria (Arnett et al., (1988), Arthritis Rheum. 31, 315). Peripheral blood samples were obtained with informed consent. There were five women and two men aged 46-79 years. Their duration of disease ranged from over 10 to over 30 years. Three out of 7 patients had at least 3 swollen joints. […] All patients were on medication: Four patients were treated with prednisone, three patients received anti-rheumatic agents and 4 patients were treated with NSAID's as well.
In order to identify T-cell epitopes within HC gp-39, 59 peptides of 16 AA in length, overlapping by 10 AA were tested for their capacity to induce a proliferative response in PBMC from RA patients and healthy controls carrying the DR4 (DRB1*0401) specificity (Table 1).
PBMC obtained from heparinized venous peripheral blood were isolated by standard centrifugation on a Ficoll-Paque gradient. Cells were cultured in four-fold at a concentration of 1,5×10^5 cells/well in medium supplemented with 10% heat-inactivated, autologous plasma, L-glutamine, 2-ME and antibiotics in flatbottomed microtiter plates. Cells were incubated in medium alone or in the presence of phytohaemagglutinin (PHA) (2:5 μg/ml) to assert cell viability, or in the presence of 10 or 100 μg/ml of the HC gp-39-derived peptides. In several cases, sets of 2 or 3 sequential peptides were tested due to limited PBMC numbers of individual donors. Cultures were incubated in a total volume of 210 μl for 7 days at […] in a humidified atmosphere of 5% CO2. Cultures were pulsed during the last 18 hours with 0.25 μCi ^3H-thymidine ([^3H]TdR). Cells were harvested on glassfiber filters and [^3H] TdR incorporation was measured by gas scintillation (Packard Matrix 96 βcounter). Only peptides inducing a proliferative response at both 10 and 100 μg/ml were considered to contain a T-cell epitope. Responses were defined positive if stimulation index values (SI, antigen-specific counts per 5 min (cp5 m)/background cp5 m) exceeded or equaled 2.
T-cell reactivity to HC gp-39-derived peptide as analyzed by measuring the PBMC proliferative response in DR4 (DRB1*0401)-positive RA patients and healthy donors. Proliferative responses were tested in autologous plasma. In Table IIIA and IIIB the results of 7 experiments are presented showing the responses of RA patients (Table IIIA) and the responses of healthy donors (Table IIIB) to 59 overlapping sequences derived from HC gp-39.

[3] = biological target: T2, DR4 (DRB1*0401) molecules purified from the homozygous EBV-transformed human B lymphoblastoid cell line … (human, UniProt P01903 26-254); assay: competition binding assay on purified DR4(DRB1*0401)
T2 construct: mature; That form is inferred from purification of the native complex

Molecule | Relative affinity of binding to DR4 (DRB1*0401), in words [1] | IC50 [1] [µM] | binding result [3] | other results
DFQGSFCGQDLRFPLT [compound 57, DFQGSFCGQDLRFPLT] | high to intermediate relative affinity | 1 to 10 | – | –
DIAKISQHLDFISIMT [compound 29, DIAKISQHLDFISIMT] | high to intermediate relative affinity | < 1 | – | Peptide-induced proliferative response of PBMC, RA 259 ([2]; RA patient 259, 0401, R): pos (positive responses to both 100 and 10 microgram/ml of peptide or sets of peptides (SI≧2 were regarded positive))
DLAWLYPGRRDKQHFT [peptide 20, DLAWLYPGRRDKQHFT] | poor relative affinity | 100 to 1000 | – | Peptide-induced proliferative response of PBMC, RA 286 [2]: pos (positive responses to both 100 and 10 microgram/ml of peptide or sets of peptides (SI≧2 were regarded positive))
EICDFLRGATVHRTLG [compound 47, EICDFLRGATVHRTLG] | high to intermediate relative affinity | < 1 | – | Peptide-induced proliferative response of PBMC, RA 191 [2]: pos (positive responses to both 100 and 10 microgram/ml of peptide or sets of peptides (SI≧2 were regarded positive))
GTLAYYEICDFLRGAT [compound 46, GTLAYYEICDFLRGAT] | high to intermediate relative affinity | < 1 | – | –
HGFDGLDLAWLYPGRR [compound 19, HGFDGLDLAWLYPGRR] | high to intermediate relative affinity | 10 to 100 | – | –
NTQSRRTFIKSVPPFL [compound 16, NTQSRRTFIKSVPPFL] | high to intermediate relative affinity | < 1 | – | Peptide-induced proliferative response of PBMC, RA 286 [2]: pos (positive responses to both 100 and 10 microgram/ml of peptide or sets of peptides (SI≧2 were regarded positive))
PASKLVMGIPTFGRSF [compound 39, PASKLVMGIPTFGRSF] | high to intermediate relative affinity | 1 to 10 | – | –
PPFLRTHGFDGLDLAW [compound 18, PPFLRTHGFDGLDLAW] | high to intermediate relative affinity | 10 to 100 | – | Peptide-induced proliferative response of PBMC, RA 276 ([2]; RA patient 276, 0401, R): pos (positive responses to both 100 and 10 microgram/ml of peptide or sets of peptides (SI≧2 were regarded positive))
RGATVHRTLGQQVPYA [compound 48, RGATVHRTLGQQVPYA] | high to intermediate relative affinity | 10 to 100 | – | –
TFIKSVPPFLRTHGFD [compound 17, TFIKSVPPFLRTHGFD] | high to intermediate relative affinity | 1 to 10 | – | –
TIDSSYDIAKISQHLD [compound 28, TIDSSYDIAKISQHLD] | high to intermediate relative affinity | < 1 | – | –
VKSKVQYLKDRQLAGA [compound 53, VKSKVQYLKDRQLAGA] | high to intermediate relative affinity | < 1 | – | –
WALDLDDFQGSFCGQD [compound 56, WALDLDDFQGSFCGQD] | high to intermediate relative affinity | < 1 | – | Peptide-induced proliferative response of PBMC, RA 191 [2]: pos (positive responses to both 100 and 10 microgram/ml of peptide or sets of peptides (SI≧2 were regarded positive)); Peptide-induced proliferative response of PBMC, RA 286 [2]: pos (positive responses to both 100 and 10 microgram/ml of peptide or sets of peptides (SI≧2 were regarded positive))
YREGDGSCFPDALDRF [peptide 3, YREGDGSCFPDALDRF] | high to intermediate relative affinity | 10 to 100 | – | –
PASKLVMGIPTFGRSF [HC gp-39 peptide 39 (residues 250-265)] | – | – | binds | –
EICDFLRGATVHRTLG [HC gp-39 peptide 47 (residues 298-313)] | – | – | binds | –

Molecule | Relative affinity of binding to DR4 (DRB1*0401), in words [1] | IC50 [1] [µM] | binding result [3] | other results
PPFLRTHGFDGLDLAW [HC gp-39 peptide 18 (residues 124-139)] | – | – | binds | –
MLRLGAPASKLVMGIP [HC gp-39 peptide 38 (residues 244-259)] | – | – | binds | –
PNLKTLLSVGGWNFGS [HC gp-39 peptide 12 (residues 88-103)] | – | – | binds | –
YTSWSQYREGDGSCFP [HC gp-39 peptide 2 (residues 28-43)] | – | – | binds | –
MGIPTFGRSFTLASSE [HC gp-39 peptide 40 (residues 256-271)] | – | – | binds | –
DIAKISQHLDFISIMT [HC gp-39 peptide 29 (residues 190-205)] | – | – | binds | –
RGATVHRTLGQQVPYA [HC gp-39 peptide 48 (residues 304-319)] | – | – | binds | –
VKSKVQYLKDRQLAGA [HC gp-39 peptide 53 (residues 334-349)] | – | – | binds | –
DLAWLYPGRRDKQHFT [HC gp-39 peptide 20 (residues 136-151)] | – | – | binds | –
GRSFTLASSETGVGAP [HC gp-39 peptide 41 (residues 262-277)] | – | – | binds | –
LAGAMVWALDLDDFQG [HC gp-39 peptide 55 (residues 346-361)] | – | – | binds | –
NTQSRRTFIKSVPPFL [HC gp-39 peptide 16 (residues 112-127)] | – | – | binds | –
TIDSSYDIAKISQHLD [HC gp-39 peptide 28 (residues 184-199)] | – | – | binds | –
SPLFRGQEDASPDRFS [HC gp-39 peptide 34 (residues 220-235)] | – | – | binds | –
GTLAYYEICDFLRGAT [HC gp-39 peptide 46 (residues 292-307)] | – | – | binds | –
HGFDGLDLAWLYPGRR [HC gp-39 peptide 19 (residues 130-145)] | – | – | binds | –
YREGDGSCFPDALDRF [HC gp-39 peptide 3 (residues 34-49)] | – | – | binds | –
